Test [1] concerns lung adenocarcinoma cell line H2009. Kind of test: Flow cytometry evaluation of binding on H2009 cells. The settings on record: 100 nM, incubation time 1 h at 37° C. The test is classed as cell-based. From the text: Binding of imaging agent 7 (prepared as described in Example 9) was studied using flow cytometric analysis (Beckman Coulter FC500 MPL) on lung adenocarcinoma cell line H2009 (Cancer Res; 67: 5889-5895).

For the next test, the target named is T1, integrin receptors αvβ3 (Homo sapiens, UniProt P05106+P06756).
T1 construct: membrane fractions prepared from human endothelial adenocarcinoma cell line EA-Hy 926; endogenous in cells; host or cells: EA-Hy 926 (human endothelial cell line), membrane fractions
The test is described as follows: In vitro affinity assessment αvβ3: competition with radiolabelled Echistatin on membrane fractions of EA-Hy 926. It counts as binding. The settings on record: for competing out binding of the radiolabelled Echistatin: highest concentration tested 144 μM, FIG. 1. As for the experimental part: Affinity for integrin receptors αvβ3 was measured by competition experiments with [[…]]-Echistatin on membrane fractions prepared from human endothelial adenocarcinoma cell line EA-Hy 926 using a homogenizer and isolated by ultracentrifugation. Dilutions of test compounds were mixed with the radiotracer and membrane fraction prior to incubation for 1 h at 37° C. After a washing procedure the membranes were harvested on a filter using Skatron micro harvester. The filter spots were finally excised and counted in a Packard γ-counter. The Kd of [[…]]-Echistatin was calculated using Prism software. […] The compounds tested were EMD527040 (benchmark), the cPn216-chelated compound of Example 2(viii) and the tetraamine-chelated compound of Example 3(ii).

Consider “1-(Cy5**-amido)-45-(3,5-dichlorophenyl)-39,43-dioxo-42-(5-(pyridin-2-ylamino)pentanamido)-3,6,9,12,15,18,21,24,27,30,33,36-dodecaoxa-40,44-diazaheptatetracontan-47-oic acid [imaging agent 7]”, for which the “positive uptake, share of the cells” value in test [1] is reported as “around 40%”.
Consider `O=C(O)CC(NC(=O)[C@H](COCc1ccccc1)NC(=O)CCCCNc1ccccn1)c1cc(Cl)cc(Cl)c1` (some centres unmarked) [EMD527040, reference compound], for which, at integrin receptors αvβ3, the “competing out binding of the radiolabelled Echistatin” value (from here on “competing out binding”) is given as “not possible to compete out binding of the radiolabelled Echistatin completely”.
Turning to `C/C(=N/O)C(C)(C)NCCC(CCNC(=O)CCCC(=O)NC[C@H](NC(=O)CCCCNc1ccccn1)C(=O)NC(CC(=O)O)c1cc(Cl)cc(Cl)c1)CCNC(C)(C)/C(C)=N\O` (stereo partly drawn) [Example 2(viii), (6S,Z)-3-(3,5-dichlorophenyl)-22-(hydroxyimino)-17-(2-(((Z)-3-(hydroxyimino)-2-methylbutan-2-yl)amino)ethyl)-21,21-dimethyl-5,9,13-trioxo-6-(5-(pyridin-2-ylamino)pentanamido)-4,8,14,20-tetraazatricosan-1-oic acid], the “competing out binding” value on integrin receptors αvβ3 is “not possible to compete out binding of the radiolabelled Echistatin completely”.
For `NCCNCC(CNCCN)CC(=O)NC[C@H](NC(=O)CCCCNc1ccccn1)C(=O)NC(CC(=O)O)c1cc(Cl)cc(Cl)c1` (stereo partly drawn) [Example 3(ii), 3-((S)-3-(4-(2-Aminoethylamino)-3-((2-aminoethylamino)methyl)butanamido)-2-(5-(pyridin-2-ylamino)pentanamido)propanamido)-3-(3,5-dichlorophenyl)propanoic acid], the “competing out binding” value at integrin receptors αvβ3 is on record as “not possible to compete out binding of the radiolabelled Echistatin completely”.
Echistatin [reference compound] returned a Ki at integrin receptors αvβ3 (competition with [^115I]-Echistatin, EA-Hy 926 membrane fraction, 1 h at 37° C.) of 140 pM.

Values taken from patent publication US20120244074A1, “LABELLED INTEGRIN BINDERS” (priority 2009, published 2012).
